Reference: patent US6765004B1, “Indoloazepines as vasopressin receptor antagonists” (priority 1999, dated 2004)

Tests used:
human V-1 receptor = molecular target: T1, human V-1 receptor (Homo sapiens, UniProt P37288); assay: In vitro recombinant vasopressin receptor binding assay (V-1), displacement of 3H-arginine vasopressin; design: unit of the concentration uncertain; details: at 0.1 (unit uncertain) as printed in cell; cloned human V-1 receptor membranes, HEK-293
T1 construct: expressed in transfected cells; host or cells: HEK-293
T1 sequence (P37288 whole entry): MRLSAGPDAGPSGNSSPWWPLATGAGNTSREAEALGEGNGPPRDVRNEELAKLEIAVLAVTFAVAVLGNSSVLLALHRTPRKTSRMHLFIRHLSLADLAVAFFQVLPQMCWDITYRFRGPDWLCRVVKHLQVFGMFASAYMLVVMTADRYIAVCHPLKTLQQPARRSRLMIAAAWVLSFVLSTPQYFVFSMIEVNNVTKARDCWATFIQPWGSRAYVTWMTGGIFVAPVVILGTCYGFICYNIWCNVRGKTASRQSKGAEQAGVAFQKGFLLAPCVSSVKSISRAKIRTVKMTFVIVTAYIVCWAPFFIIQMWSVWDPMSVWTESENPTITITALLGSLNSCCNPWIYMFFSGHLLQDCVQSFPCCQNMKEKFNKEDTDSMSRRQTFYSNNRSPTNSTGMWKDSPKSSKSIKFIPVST
Procedure: (§1) In Vitro Recombinant Vasopressin Receptor Binding Assay
(§2) Compounds were assessed for their ability to displace ^3H-arginine vasopressin from the human V-1 or V-2 receptor in HEK-293 cells. […] Into wells of 96-well round bottom polypropylene plates were added buffer, test compound, membrane (containing cloned human V-1 or V-2 receptor), and ^3H-vasopressin. The reaction plates were allowed to sit at rt for 1 h. The samples were filtered through Unifilter GF/C plates presoaked in 0.3 polyethyleneimine). The plates were washed 5 times with cold physiological saline containing 0.05% Tween 20. After drying, the bottom of the filter plates were sealed and 0.025 ml of Microscint-20 was added to each filter. The top of the plate was sealed, and the plate was counted.

[1] = tested on: vasopressin-induced hypertension; assay: Reversal of vasopressin-induced hypertension in rats, intraduodenal single dose; type: in vivo, Male Long Evans rats; details: ID dose 10 mg/kg, anesthetized rats, maximum percent reversal within 60 min
Procedure: Reversal of Vasopressin-Induced Hypertension in Rats
The anti-hypertensive activity of compounds was screened in an anesthetized model of vasopressin-induced hypertension. Male Long Evans, normotensive rats of between 350 and 450 g in body weight were anesthetized with pentobarbital (35 mg/kg, ip) and maintained throughout the procedure with an ip infusion of 10 mg/kg/hr. Arginine vasopressin was infused at 30 ng/kg/min, iv, to induce a stable hypertensive state (ca. 50 mmHg increase in mean arterial blood pressure). Compounds of interest were administered in an ascending dose fashion and the maximum decrease in mean arterial blood pressure was recorded. An ED50 was determined from the linear portion of the dose-response relationship for each animal.
This model was modified slightly to assess the bioavailability of compounds of interest. Rather than dosing the animals iv in an ascending dose fashion, a single dose per animal was administered directly into the duodenum. The anti-hypertensive effects were then monitored for 60 min and the maximum percent reversal was calculated.

human V-2 receptor = molecular target: T2, human V-2 receptor (Homo sapiens, UniProt P30518); assay: In vitro recombinant vasopressin receptor binding assay (V-2), displacement of 3H-arginine vasopressin; design: dose or concentration left out as unconfirmed; details: cloned human V-2 receptor membranes, HEK-293
T2 construct: expressed in transfected cells; host or cells: HEK-293
T2 sequence (P30518 whole entry): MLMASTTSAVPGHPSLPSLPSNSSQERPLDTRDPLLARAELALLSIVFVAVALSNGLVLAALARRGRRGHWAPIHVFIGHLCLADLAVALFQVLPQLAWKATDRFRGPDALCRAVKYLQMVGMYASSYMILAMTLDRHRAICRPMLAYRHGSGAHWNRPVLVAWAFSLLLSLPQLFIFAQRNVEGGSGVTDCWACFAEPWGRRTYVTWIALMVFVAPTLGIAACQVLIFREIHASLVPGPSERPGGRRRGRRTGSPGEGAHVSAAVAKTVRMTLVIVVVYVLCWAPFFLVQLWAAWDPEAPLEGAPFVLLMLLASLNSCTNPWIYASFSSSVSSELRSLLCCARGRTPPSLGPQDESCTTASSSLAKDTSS
Procedure: as §1, §2

SMILES	V1 Bdg (%) (human V-1 receptor)	BP Reduction (%) [1] [%]	V2 Bdg (%) (human V-2 receptor)
CN(C)Cc1[nH]c2cccc3c2c1CCCN3C(=O)c1ccc(NC(=O)c2ccccc2-c2ccccc2)cc1 [Compound 17, 6-[4-[[(2-Biphenyl-)carbonyl]amino]benzoyl]-2-(N, N-dimethylaminomethyl)-3,4,5,6-tetrahydro-1 H-azepino[4,3,2-cd]indole]	6% (0.1 M)		
O=C(Nc1ccc(C(=O)N2CCCC3C(=O)Nc4cccc2c43)cc1)c1ccccc1-c1ccccc1 (centres unmarked) [Compound 15, 6-[4-[[(2-Biphenyl-)carbonyl]amino]benzoyl]-3,4,5,6-tetrahydro-1H-azepino[4,3,2-cd]-2-indolone]		23	
O=C(Nc1ccc(C(=O)N2CCCc3c(S(=O)(=O)O)[nH]c4cccc2c34)c(Cl)c1)c1ccccc1-c1ccccc1 [Compound 19, 6-[4-[[(2-Biphenyl-)carbonyl]amino]2-chlorobenzoyl]-3,4,5,6-tetrahydro-1 H-azepino (4,3,2-cd]indole-2-sulfonic acid]	4% (0.1 M)	23	
O=C(Nc1ccc(C(=O)N2CCCc3c(S(=O)(=O)O)[nH]c4cccc2c34)cc1)c1ccccc1-c1ccccc1 [Compound 18, 6-[4-[[(2-Biphenyl-)carbonyl]amino]benzoyl]-3,4,5,6-tetrahydro-1H-azepino[4,3,2-cd]indole-2-sulfonic acid]	0% (0.1 M)	13	
Cc1occc1C(=O)Nc1ccc(C(=O)N2CCCc3c[nH]c4cccc2c34)cc1 [Compound 12, 6-[4-[[(2-Methyl-3-furanyl)carbonyl]amino]benzoyl]-3,4,5,6-tetrahydro-1H-azepino[4,3,2-cd]indole]			24% (1.0 M)
O=C(Nc1ccc(C(=O)N2CCCc3c[nH]c4cccc2c34)cc1)c1ccccc1-c1ccccc1 [Compound 10, 6-[4-[[(2-Biphenyl-)carbonyl]amino]benzoyl]-3,4,5,6-tetrahydro-1H-azepino[4,3,2-cd]indole]		17	
